Test results from BindingDB's records for doi:10.1016/j.bmcl.2014.08.028 (Rhône-Poulenc Rorer, 2014).

Assay: Antagonist activity at CRTH2 receptor in human whole blood assessed as inhibition of PGD2-induced eosinophil shape change after 10 mins by fluorescence assay

Row | Structure (SMILES) | IC50
1 | Cc1nnc(C2CC2)n1Cc1cc(C(F)(F)F)ccc1-n1cc(CC(=O)O)c2ccc(F)cc21 | 7 nM
2 | Cc1ccc2c(CC(=O)O)cn(-c3ccc(Cl)cc3Cn3c(C)nnc3Cc3ccccc3)c2n1 | 2 nM
3 | Cc1ccn2c(CC(=O)O)cc(-c3ccc(C(F)(F)F)cc3Cc3c(C)noc3C3CC3)c2n1 | 26 nM
4 | Cc1ccc2c(CC(=O)O)cn(-c3ccc(Cl)cc3Cn3c(C)nnc3CCc3ccccc3)c2n1 | 5 nM
5 | Cc1noc(C2CC2)c1Cc1cc(F)ccc1-c1cn(CC(=O)O)c2ccc(C(F)(F)F)cc12 | 16 nM
6 | Cc1ccc2c(CC(=O)O)cn(-c3ccc(Cl)cc3Cn3c(C)nnc3C3CC3)c2n1 | 4 nM
7 | Cc1ccc(-n2cc(CC(=O)O)c3ccc(C)nc32)c(Cn2c(C)nnc2C)c1 | 1 nM
8 | Cc1ccc2c(CC(=O)O)cn(-c3ccc(Cl)cc3Cc3c(C4CC4)noc3C3CC3)c2n1 | 10 nM
9 | Cc1noc(C2CC2)c1Cc1cc(C(F)(F)F)ccc1-c1cn(CC(=O)O)c2ccc(C(F)(F)F)nc12 | 54 nM
10 | Cc1ccc2c(CC(=O)O)cn(-c3ccc(C(F)(F)F)cc3Cc3c(C4CC4)noc3C3CC3)c2n1 | 60 nM
11 | Cc1ccc2c(CC(=O)O)cn(-c3ccc(F)cc3Cc3c(C)cnn3C)c2n1 | 6 nM
12 | Cc1nnc(C2CC2)n1Cc1cc(C(F)(F)F)ccc1-c1cn(CC(=O)O)c2ccc(F)cc12 | 2 nM
13 | Cc1ccc2c(CC(=O)O)cn(-c3ccc(C(F)(F)F)cc3Cc3c(C)noc3C3CC3)c2n1 | 5 nM
14 | Cc1ccc2c(CC(=O)O)cn(-c3ccc(F)cc3Cc3c(C)noc3C3CC3)c2n1 | 1 nM
